This passage reports Ki results from patent publication US9260425B2 (Genetech, Inc., priority 2011, dated 2016).

Chain of Pim-1 (P11309 whole entry): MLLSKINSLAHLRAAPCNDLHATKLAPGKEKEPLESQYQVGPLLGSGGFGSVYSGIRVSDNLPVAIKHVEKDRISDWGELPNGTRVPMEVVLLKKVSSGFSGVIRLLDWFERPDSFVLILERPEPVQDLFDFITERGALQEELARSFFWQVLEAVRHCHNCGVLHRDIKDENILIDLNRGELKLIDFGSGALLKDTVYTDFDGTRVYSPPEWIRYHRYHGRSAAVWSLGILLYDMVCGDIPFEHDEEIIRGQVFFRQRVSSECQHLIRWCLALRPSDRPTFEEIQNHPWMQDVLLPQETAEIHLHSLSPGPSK

This experiment has as its target Pim-1 (Homo sapiens (Human), UniProt P11309). Description: Pim kinase binding activity assay (Example 901), PIM-1 enzyme, Caliper microfluidic peptide phosphorylation. The class given is biochemical. As to conditions: 20 pM PIM-1, 10 μM ATP, 1 μM FAM-peptide, 90 minutes at room temperature. Summed up: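 PIM-1 at 20 pM phosphorylated 1 μM FAM-labelled Pim peptide with 10 μM ATP in HEPES pH 7.2, MgCl2, Tween 20 and DTT for 90 min at room temperature. EDTA stopped the reaction, and product and substrate were resolved by microfluidic electrophoresis (ex 488/em 530 nm). Ki was derived from substrate conversion.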
Turning to `CN1CCN(c2cc3c(-c4cccc(N5CCNCC5)n4)n[nH]c3cn2)CC1=O` [Example 223, 1-methyl-4-(3-(6-(piperazin-1-yl)pyridin-2-yl)-1H-pyrazolo[3,4-c]pyridin-5-yl)piperazin-2-one], the affinity corresponds to a Ki of 38.5 nM.

Turning to `C1=C(c2n[nH]c3cnc(-c4cccnc4)cc23)CCC1` [Example 225, 3-cyclopentenyl-5-(pyridin-3-yl)-1H-pyrazolo[3,4-c]pyridine], the Ki is 2.83 nM. With `Cn1cc(-c2cc3c(-c4cccc(N5CCCCC(N)C5)n4)n[nH]c3cn2)cn1` (centres unmarked) [Example 226, 1-(6-(5-(1-methyl-1H-pyrazol-4-yl)-1H-pyrazolo[3,4-c]pyridin-3-yl)pyridin-2-yl)azepan-3-amine] the figure was 0.051 nM; with `c1cncc(-c2cc3c(C4CCCC4)n[nH]c3cn2)c1` [Example 228, 3-cyclopentyl-5-(pyridin-3-yl)-1H-pyrazolo[3,4-c]pyridine], 43 nM; with `NC(=O)C1(N)CCN(c2cccc(-c3n[nH]c4cnc(-c5cccnc5)cc34)n2)CC1` [Example 229, 4-amino-1-(6-(5-(pyridin-3-yl)-1H-pyrazolo[3,4-c]pyridin-3-yl)pyridin-2-yl)piperidine-4-carboxamide], 0.22 nM.

In turn, `Cn1ccc(-c2n[nH]c3cnc(-c4cccnc4)cc23)n1` [Example 232, 3-(1-methyl-1H-pyrazol-3-yl)-5-(pyridin-3-yl)-1H-pyrazolo[3,4-c]pyridine] registered a Ki of 7.16 nM. On to `Cn1ccc(-c2n[nH]c3cnc(-c4cncc(N5CCC(N)CC5)n4)cc23)n1` [Example 233, 1-(6-(3-(1-methyl-1H-pyrazol-3-yl)-1H-pyrazolo[3,4-c]pyridin-5-yl)pyrazin-2-yl)piperidin-4-amine], for which the affinity, expressed as Ki, was 0.051 nM. With `Cn1cc(-c2cc3c(-c4cccc(N5CCNCC5)n4)n[nH]c3cn2)cn1` [Example 234, 5-(1-methyl-1H-pyrazol-4-yl)-3-(6-(piperazin-1-yl)pyridin-2-yl)-1H-pyrazolo[3,4-c]pyridine] the figure was 0.036 nM; with `N#CCc1cc2c(-c3cccc(N4CCNCC4)n3)n[nH]c2cn1` [Example 235, 2-(3-(6-(piperazin-1-yl)pyridin-2-yl)-1H-pyrazolo[3,4-c]pyridin-5-yl)acetonitrile], 583 nM; with `CNC(=O)C1(N)CCN(c2cccc(-c3n[nH]c4cnc(-c5cccnc5)cc34)n2)CC1` [Example 236, 4-amino-N-methyl-1-(6-(5-(pyridin-3-yl)-1H-pyrazolo[3,4-c]pyridin-3-yl)pyridin-2-yl)piperidine-4-carboxamide], 0.353 nM. Under `NCC[C@H]1CCCN(c2cccc(-c3n[nH]c4cnc(-c5cccnc5)cc34)n2)C1` [Example 237, (R)-2-(1-(6-(5-(pyridin-3-yl)-1H-pyrazolo[3,4-c]pyridin-3-yl)pyridin-2-yl)piperidin-3-yl)ethanamine] stands 0.042 nM; under `N[C@@H]1CCC[C@H](Nc2cccc(-c3n[nH]c4cnc(-c5cccnc5)cc34)n2)C1` [Example 239, (1S,3R)—N1-(6-(5-(pyridin-3-yl)-1H-pyrazolo[3,4-c]pyridin-3-yl)pyridin-2-yl)cyclohexane-1,3-diamine], 0.3 nM. With `N#Cc1cc(-c2n[nH]c3cnc(-c4cccnc4)cc23)cc(N2CCNCC2)c1` [Example 240, 3-(piperazin-1-yl)-5-(5-(pyridin-3-yl)-1H-pyrazolo[3,4-c]pyridin-3-yl)benzonitrile] the figure was 5.28 nM. The compound `NCC[C@@H]1CCCN(c2cccc(-c3n[nH]c4cnc(-c5cccnc5)cc34)n2)C1` [Example 242, (S)-2-(1-(6-(5-(pyridin-3-yl)-1H-pyrazolo[3,4-c]pyridin-3-yl)pyridin-2-yl)piperidin-3-yl)ethanamine] gave an inhibition constant (Ki) of 0.03 nM. On to `Cc1ccc(-c2n[nH]c3cnc(-c4cccnc4)cc23)nc1N1CCC(N)CC1` [Example 243, 1-(3-methyl-6-(5-(pyridin-3-yl)-1H-pyrazolo[3,4-c]pyridin-3-yl)pyridin-2-yl)piperidin-4-amine], for which the inhibition constant Ki turned out to be 0.049 nM. For `Cn1cc(-c2cc3c(-c4cccc(C5CCNCC5)n4)n[nH]c3cn2)cn1` [Example 247, 5-(1-methyl-1H-pyrazol-4-yl)-3-(6-(piperidin-4-yl)pyridin-2-yl)-1H-pyrazolo[3,4-c]pyridine], the inhibition constant Ki turned out to be 0.224 nM.

With `Cn1cc(-c2cc3c(-c4cnn(CC(C)(C)O)c4)n[nH]c3cn2)cn1` [Example 250, 2-methyl-1-(4-(5-(1-methyl-1H-pyrazol-4-yl)-1H-pyrazolo[3,4-c]pyridin-3-yl)-1H-pyrazol-1-yl)propan-2-ol], the affinity corresponds to a Ki of 0.389 nM. With `Cn1cc(-c2cc3c(-c4cccc(N[C@H]5CC[C@@H](N)CC5)n4)n[nH]c3cn2)cn1` [Example 251, (1s,4s)-N1-(6-(5-(1-methyl-1H-pyrazol-4-yl)-1H-pyrazolo[3,4-c]pyridin-3-yl)pyridin-2-yl)cyclohexane-1,4-diamine] the figure was 0.04 nM; with `c1cncc(-c2cc3c(N4CCCC4)n[nH]c3cn2)c1` [Example 252, 5-(pyridin-3-yl)-3-(pyrrolidin-1-yl)-1H-pyrazolo[3,4-c]pyridine], 10 nM.

`NC(=O)Cc1cc2c(-c3cccc(N4CCNCC4)n3)n[nH]c2cn1` [Example 253, 2-(3-(6-(piperazin-1-yl)pyridin-2-yl)-1H-pyrazolo[3,4-c]pyridin-5-yl)acetamide] yielded a Ki of 171 nM.

In turn, `CN1CCN(c2n[nH]c3cnc(-c4cccnc4)cc23)C1=O` [Example 254, 1-methyl-3-(5-(pyridin-3-yl)-1H-pyrazolo[3,4-c]pyridin-3-yl)imidazolidin-2-one] registered a Ki of 18.5 nM. In the case of `CN1CCN(c2nc(-c3n[nH]c4cnc(-c5cccnc5)cc34)ccc2Cl)CC1` [Example 255, 3-(5-chloro-6-(4-methylpiperazin-1-yl)pyridin-2-yl)-5-(pyridin-3-yl)-1H-pyrazolo[3,4-c]pyridine], the affinity, expressed as Ki, was 0.113 nM. With `c1ccc(-c2cc3c(-c4ccccn4)n[nH]c3cn2)nc1` [Example 256, 3,5-di(pyridin-2-yl)-1H-pyrazolo[3,4-c]pyridine] the figure was 1500 nM; with `Cc1ccc(-c2n[nH]c3cnc(-c4cccnc4)cc23)nc1N1CCN(C)CC1` [Example 257, 3-(5-methyl-6-(4-methylpiperazin-1-yl)pyridin-2-yl)-5-(pyridin-3-yl)-1H-pyrazolo[3,4-c]pyridine], 0.032 nM.

Compound `O=C1CCCN1c1n[nH]c2cnc(-c3cccnc3)cc12` [Example 258, 1-(5-(pyridin-3-yl)-1H-pyrazolo[3,4-c]pyridin-3-yl)pyrrolidin-2-one] yielded a Ki of 80.9 nM. With `CN1CC(c2cc3c(-c4ccccc4)n[nH]c3cn2)=CC1=O` [Example 259, 1-methyl-4-(3-phenyl-1H-pyrazolo[3,4-c]pyridin-5-yl)-1H-pyrrol-2(5H)-one] the figure was 920 nM; with `O=C1CCCCN1c1n[nH]c2cnc(-c3cccnc3)cc12` [Example 260, 1-(5-(pyridin-3-yl)-1H-pyrazolo[3,4-c]pyridin-3-yl)piperidin-2-one], 1100 nM; with `CN1CC(c2cc3c(-c4ccccc4)n[nH]c3cn2)CC1=O` (centres unmarked) [Example 263, 1-methyl-4-(3-phenyl-1H-pyrazolo[3,4-c]pyridin-5-yl)pyrrolidin-2-one], 241 nM.

Turning to `Cn1cc(-c2cc3c(-c4cccc(O[C@@H]5CCCNC5)n4)n[nH]c3cn2)cn1` [Example 264, (R)-5-(1-methyl-1H-pyrazol-4-yl)-3-(6-(piperidin-3-yloxy)pyridin-2-yl)-1H-pyrazolo[3,4-c]pyridine], the affinity, expressed as Ki, was 0.27 nM. With `N[C@H]1CCCN(c2nc(-c3n[nH]c4cnc(-c5cccnc5)cc34)ccc2Cl)C1` [Example 265, (S)-1-(3-chloro-6-(5-(pyridin-3-yl)-1H-pyrazolo[3,4-c]pyridin-3-yl)pyridin-2-yl)piperidin-3-amine] the figure was 0.019 nM.

The compound `N[C@@H]1CCCN(c2nc(-c3n[nH]c4cnc(-c5cccnc5)cc34)ccc2Cl)C1` [Example 266, (R)-1-(3-chloro-6-(5-(pyridin-3-yl)-1H-pyrazolo[3,4-c]pyridin-3-yl)pyridin-2-yl)piperidin-3-amine] displayed an inhibitory constant (Ki) of 0.06 nM. With `N[C@H]1CCN(c2cccc(-c3n[nH]c4cnc(-c5cccnc5)cc34)n2)C1` [Example 268, (S)-1-(6-(5-(pyridin-3-yl)-1H-pyrazolo[3,4-c]pyridin-3-yl)pyridin-2-yl)pyrrolidin-3-amine] the figure was 0.0268 nM; with `O[C@@H]1CCCN(c2cccc(-c3n[nH]c4cnc(-c5cccnc5)cc34)n2)C1` [Example 271, (R)-1-(6-(5-(pyridin-3-yl)-1H-pyrazolo[3,4-c]pyridin-3-yl)pyridin-2-yl)piperidin-3-ol], 0.073 nM; with `OC1CCN(c2cccc(-c3n[nH]c4cnc(-c5cccnc5)cc34)n2)CC1` [Example 272, 1-(6-(5-(pyridin-3-yl)-1H-pyrazolo[3,4-c]pyridin-3-yl)pyridin-2-yl)piperidin-4-ol], 0.149 nM. With `c1cncc(-c2cc3c(-c4cccc(N5CCC(C6CCNCC6)CC5)n4)n[nH]c3cn2)c1` [Example 273, 3-(6-(4,4′-bipiperidin-1-yl)pyridin-2-yl)-5-(pyridin-3-yl)-1H-pyrazolo[3,4-c]pyridine] the figure was 0.07 nM; with `Cc1ccc(-c2n[nH]c3cnc(-c4cccnc4)cc23)nc1F` [Example 274, 3-(6-fluoro-5-methylpyridin-2-yl)-5-(pyridin-3-yl)-1H-pyrazolo[3,4-c]pyridine], 4.77 nM. With `Cc1ccc(-c2n[nH]c3cnc(-c4cccnc4)cc23)nc1` [Example 275, 3-(5-methylpyridin-2-yl)-5-(pyridin-3-yl)-1H-pyrazolo[3,4-c]pyridine] the figure was 6.92 nM. `N[C@@H]1CCN(c2cccc(-c3n[nH]c4cnc(-c5cccnc5)cc34)n2)C1` [Example 276, (R)-1-(6-(5-(pyridin-3-yl)-1H-pyrazolo[3,4-c]pyridin-3-yl)pyridin-2-yl)pyrrolidin-3-amine] yielded a Ki of 0.188 nM.
